Test system: Myo5 SH3 domain
Experiment: SPOT analysis of cellulose-bound peptides (WISE), Myo5 SH3 domain (Dataset S4)
Format: binding, Saccharomyces cerevisiae
Details: SPOT analysis of cellulose-bound 14-mer yeast proteome peptides, Myo5 SH3 domain; normalized value; mean where the peptide was synthesized more than once

Sequence | The normalized value in BLU units
TKAKKEKPKPPKPI | 157.7 BLU
LLAEHNGPKLPHIP | 198.5 BLU
FPKKMGPPQWPFST | 279.0 BLU
APLLYSCPSEPMAY | 83.1 BLU
PEPTMGSPDAPPLV | 106.8 BLU
SVDPKNYPDAPLEG | 91.1 BLU
IFFKLIHPFLPILH | 503.3 BLU
DFNKFERPNIPVEE | 212.3 BLU
NLHGYGHPNPPNEK | 216.6 BLU
ELFTFDMPTDPSSF | 44.9 BLU
ILTLLKMPEVPNSV | 172.2 BLU
SAENLIQPTAPIRD | 56.4 BLU
FLSYMSEPKYPSNE | 141.6 BLU
GLIAHQGPQFPVMG | 238.5 BLU
APPALSAPSVPPVP | 6575.3 BLU
IEEGHLDPEAPDKL | 84.8 BLU
REDAHEDPVSPKAG | 144.8 BLU
AGHIKTHPNSPTPG | 60.3 BLU
KPPVYRLPPLPRLK | 2305.8 BLU
SVNIKCWPLKPSNF | 56.5 BLU
LVPSKAIPPLPQLD | 558.2 BLU
DGKLKHIPRRPYEI | 306.6 BLU
KEVDLTRPSAPSEP | 132.2 BLU
SRSKRSKPLPPQLL | 884.3 BLU
ELEDFAFPDTPTIV | 254.9 BLU
YSTNRGIPARPCKD | 271.3 BLU
KWTIMPHPNRPNAA | 428.7 BLU
SWRSLTKPKIPLYK | 356.9 BLU
VTSVKLHPNLPIVF | 136.6 BLU
DFIKLMNPTLPSLK | 151.5 BLU

Same assay, conditions: SPOT analysis of cellulose-bound peptides probed with Myo5 SH3 domain; normalized value

Sequence | The normalized value in BLU units (SPOT analysis, Myo5 SH3)
NEGDLYPPEQPGVD | 80.1 BLU
KFPLMDKPSIPTLR | 431.6 BLU
HAVLLNPPVAPTAE | 227.5 BLU
GFDGYMQPIIPGKT | 158.4 BLU
ILIFLWIPDDPSKA | 1371.6 BLU
FLPVFNLPSNPALF | 154.3 BLU
NAIAMALPNEPYPA | 96.8 BLU
NALGLDPPPSPEDP | 240.8 BLU
VEPEWYLPILPMIL | 235.7 BLU
MAKSFADPRVPQPM | 172.2 BLU
SETSHHSPSAPFQR | 257.2 BLU
QENPYIIPLPPSST | 240.4 BLU
VFLRLISPTRPSLE | 1635.5 BLU
SPVNLLKPFNPTLP | 122.9 BLU
SPKKLASPRTPNAN | 276.2 BLU
IARSFTIPFLPKIP | 204.5 BLU

Sequence | The normalized value in BLU units (SPOT analysis, Myo5 SH3)
GESHYKPPSTPKIN | 721.8 BLU
DLMALKYPYFPTKM | 139.1 BLU
PAPPPPPPPPPPP | 53285 BLU
PEVHHHCPGVPCLV | 331.3 BLU
SLDNFYNPLGPEDR | 142.7 BLU
GAGGLGCPALPYLA | 110.6 BLU
SFTPFNRPSDPSNG | 208.5 BLU
HFLAYTNPRAPGKL | 111.7 BLU
LPTGYYEPMKPSSL | 164.9 BLU
KLGRFTNPQQPRED | 227.3 BLU
VPAILMTPICPRSL | 138.1 BLU
HPYMMVYPMSPPPP | 562.8 BLU
HLARYIFPPNPVFH | 279.4 BLU
FWKIHLSPPLPSFK | 965.5 BLU
QPAQLQEPQEPLST | 125.9 BLU
HLTDLSPPGTPPTM | 260.8 BLU

Same assay, conditions: SPOT analysis of membrane-bound peptides, Myo5 SH3 domain; normalized value (see methods)

Sequence | The normalized value in BLU units
EKEAKSEPQQPEDN | 139.0 BLU
FNGDRLVPTLPTVS | 160.6 BLU
PIRLRKRPPPPPPV | 60274.0 BLU
MDGIKELPEFPIKK | 138.4 BLU
KNLKKYDPEDPNRR | 207.1 BLU
DSYSRSRPTRPLGY | 261.3 BLU
FENRKHQPFTPKGM | 211.2 BLU
CFKTKFAPEAPDLF | 209.0 BLU
VSQRKKRPISPHLT | 814.5 BLU
HILEKYSPFDPCGR | 166.2 BLU
PSHYRNIPYNPATF | 174.8 BLU
ELQIRYKPTPPLKK | 171.0 BLU
LTIFKRPPKQPGHQ | 702.9 BLU
IRTYKVVPLGPKAG | 100.2 BLU
DETRKLTPCSPGDD | 230.8 BLU
RRIRKEHPGEPNVI | 308.3 BLU
TSNTKWTPITPSVI | 141.7 BLU

Sequence | The normalized value in BLU units
LFGIRNNPFIPITG | 169.8 BLU
NRANKYDPKGPIYN | 205.0 BLU
GSQWKNHPDWPFWV | 108.4 BLU
VPIDKKSPFYPGLD | 150.4 BLU
MDMDRNVPLAPNLN | 91.4 BLU
GLNLKWEPSTPQRN | 104.8 BLU
NSFSKNDPNFPILK | 160.5 BLU
VIIGKTTPISPDEE | 54.0 BLU
PTVQKFSPHPPTTL | 213.4 BLU
LIWHKSKPVKPTNK | 353.6 BLU
NTIIKFDPGRPIYN | 271.8 BLU
HRLFKCTPGLPKLW | 266.0 BLU
KIIKKCSPSVPKEE | 242.5 BLU
KRRSKSLPITPKSI | 920.9 BLU
IYHCKKQPLVPIGC | 293.5 BLU
KKNDRPSPLKPIQH | 340.9 BLU
GSLVKTKPTLPLTK | 421.7 BLU

Same assay, conditions: SPOT analysis of membrane-synthesized peptides probed with Myo5 SH3 domain; normalized value

Sequence | The normalized value in BLU units (SPOT analysis, Myo5 SH3)
SIIPRIFPSTPGTI | 368.8 BLU
SSVSKLKPSLPNKL | 418.3 BLU
YAVGRIVPDSPTYD | 189.3 BLU
FLLKKMFPAPPLPT | 23725.0 BLU
NGMPRRIPDYPDAF | 223.3 BLU
GTVTKTAPSFPQSS | 261.1 BLU
ASFRKTKPPPPLDF | 169.0 BLU
FVFFKSLPDLPKPQ | 859.9 BLU
ALSTKGYPHEPPLL | 138.6 BLU
FQDYRCSPWCPSRS | 263.5 BLU
RFWTRARPIDPNAY | 279.1 BLU
VLGPKYDPKCPEEH | 156.7 BLU
ITAEKSAPTSPEVY | 94.2 BLU
PFLIKFTPKFPQSI | 974.5 BLU
SKIPKSIPIIPYVL | 243.1 BLU
LPLPKLRPPRPTFA | 77883.2 BLU
INGEKACPFLPSSL | 183.7 BLU
KALWKIQPYLPEFS | 146.1 BLU
KMAKKLLPYKPHNS | 707.5 BLU
VEVDKKVPVLPMVA | 129.9 BLU
HTIPKSGPIVPYVL | 163.7 BLU
VTDIKLTPTDPLVG | 851.7 BLU
KQSKRARPSSPYTV | 271.3 BLU

Sequence | The normalized value in BLU units (SPOT analysis, Myo5 SH3)
LAGIRLVPVLPILL | 152.2 BLU
VKPTKLEPENPQKP | 91.3 BLU
EVLRKYIPGEPEFL | 168.7 BLU
SYISRKYPRAPAFI | 740.2 BLU
LNFPKNIPTIPFYV | 255.7 BLU
LPFPRKNPKLPENT | 147.2 BLU
PPQMRSNPQQPPQD | 268.2 BLU
PIVKKNVPKPPPLV | 153.6 BLU
VHFYKSLPQGPAPA | 509.7 BLU
KAALKYHPDKPTGD | 155.5 BLU
AVQLKRQPAQPRES | 237.9 BLU
DEFNRNTPPQPSLL | 118.0 BLU
KKHDKLHPNYPSVK | 406.8 BLU
KNLLREIPQVPAFQ | 104.1 BLU
LIWHKNKPTEPDNK | 155.4 BLU
QLINRFMPHFPSSP | 518.2 BLU
NTINKSNPQGPSDN | 76.2 BLU
RHSKKPAPPPPGMQ | 1938.6 BLU
GTRPKILPKIPTGA | 772.9 BLU
TLDEKNLPRLPTPF | 205.2 BLU
YYYYKHYPNMPPIN | 287.9 BLU
TSSSRRGPGRPRKD | 619.5 BLU

Reference: PMC314469, “Protein Interaction Networks by Proteome Peptide Scanning” (PLoS Biology, 2004)
